Laboratory results: paper PMC8286840, “Identifying SARS-CoV-2 antiviral compounds by screening for small molecule inhibitors of Nsp3 papain-like protease” (Biochemical Journal, 2021)
Where a name gives a salt, the structure may show the parent alone. Read-outs that look alike come from different tables or passages of the source.

Tests used:
[1] = target: T1, SARS-CoV-2 PLpro (nsp3 1564–1878) (Severe acute respiratory syndrome coronavirus 2, UniProt P0DTD1); assay: biochemical; design: FRET-quenched peptide (Pro3) cleavage by PLpro, 10 min pre-incubation, slope over 20 min, normalised to no-compound control; conditions: high concentration screen, read-out: % of control remaining
[2] = target: T1, SARS-CoV-2 PLpro (nsp3 1564–1878); assay: biochemical; design: FRET-quenched peptide (Pro3) cleavage by PLpro, 10 min pre-incubation, slope over 20 min, normalised to no-compound control; conditions: low concentration screen, read-out: % of control remaining

N=C1CCCN1Cc1[nH]c(=O)[nH]c(=O)c1Cl [Tipiracil hydrochloride]
remaining activity at 3.75 µM ([1]; Well no.=8154): 95.8% | remaining activity at 1.25 µM ([2]; Well no.=8154): 95.9%

O=S1(=O)CCN(CN2CCS(=O)(=O)NC2)CN1 [Taurolidine]
remaining activity at 3.75 µM ([1]; Well no.=5628): 109% | remaining activity at 1.25 µM ([2]; Well no.=5628): 103%

CC(C)c1cc(-c2n[nH]c(=O)n2-c2ccc3c(ccn3C)c2)c(O)cc1O [Ganetespib (STA-9090)]
remaining activity at 3.75 µM ([1]; Well no.=9028): 86.1% | remaining activity at 1.25 µM ([2]; Well no.=9028): 85.9%

O=C(c1ccc(OCCN2CCCCC2)cc1)c1c(-c2ccc(O)cc2)sc2cc(O)ccc12 [Raloxifene]
remaining activity at 3.75 µM ([1]; Well no.=1662): 108% | remaining activity at 1.25 µM ([2]; Well no.=1662): 107%

CC(C)=CCC[C@@H](C)[C@H]1CC[C@H]2[C@@H]3CC=C4C[C@@H](O)CC[C@]4(C)[C@H]3CC[C@]12C [Desmosterol]
remaining activity at 3.75 µM ([1]; Well no.=5972): 99% | remaining activity at 1.25 µM ([2]; Well no.=5972): 101%

NC(=O)c1ccc[n+]([O-])c1 [Nicotinamide N-oxide]
remaining activity at 3.75 µM ([1]; Well no.=6247): 107% | remaining activity at 3.75 µM ([1]; Well no.=8269): 102% | remaining activity at 3.75 µM ([1]; Well no.=8347): 92.3% | remaining activity at 1.25 µM ([2]; Well no.=6247): 105% | remaining activity at 1.25 µM ([2]; Well no.=8269): 106% | remaining activity at 1.25 µM ([2]; Well no.=8347): 101%

COc1cccc(C(=O)O)c1 [3-Methoxybenzoic acid]
remaining activity at 3.75 µM ([1]; Well no.=6587): 98.4% | remaining activity at 1.25 µM ([2]; Well no.=6587): 100%

CCCCC(C)(O)C/C=C/[C@H]1[C@H](O)CC(=O)[C@@H]1CCCCCCC(=O)OC (mixture of isomers) [Misoprostol]
remaining activity at 3.75 µM ([1]; Well no.=2194): 98% | remaining activity at 3.75 µM ([1]; Well no.=7473): 103% | remaining activity at 1.25 µM ([2]; Well no.=2194): 99.5% | remaining activity at 1.25 µM ([2]; Well no.=7473): 104%

C[C@H](CCC(=O)NCCS(=O)(=O)O)[C@H]1CC[C@H]2[C@@H]3[C@H](O)C[C@@H]4C[C@H](O)CC[C@]4(C)[C@H]3CC[C@]12C [Taurochenodeoxycholic acid]
remaining activity at 3.75 µM ([1]; Well no.=6294): 101% | remaining activity at 3.75 µM ([1]; Well no.=6493): 103% | remaining activity at 1.25 µM ([2]; Well no.=6294): 101%

CC[n+]1c(/C=C/N(C)c2ccccc2)n(-c2ccccc2)c2ccc(-c3nc4ccccc4s3)cc21 [Akt Inhibitor IV]
remaining activity at 3.75 µM ([1]; Well no.=2311): 101% | remaining activity at 1.25 µM ([2]; Well no.=2311): 102%

Nc1n[nH]c(N)c1N=Nc1ccc(O)cc1 [Cdk9 Inhibitor II]
remaining activity at 3.75 µM ([1]; Well no.=2395): 103% | remaining activity at 1.25 µM ([2]; Well no.=2395): 104%

CN(C)C(=S)NN=C(c1ccccn1)c1ccccn1 [Dp44mT]
remaining activity at 3.75 µM ([1]; Well no.=5584): 101% | remaining activity at 1.25 µM ([2]; Well no.=5584): 99.1%

O=C1Nc2ccccc2/C1=C1/Nc2ccccc2C1=O [Indirubin]
remaining activity at 3.75 µM ([1]; Well no.=3771): 101% | remaining activity at 1.25 µM ([2]; Well no.=3771): 95.4%

CCCCCCCCCCCCCCCC(=O)NCC(COP(=O)([O-])OCC[N+](C)(C)C)OCC (racemic) [rac-2-Ethoxy-3-hexadecanamido-1-propylphosphocholine]
remaining activity at 3.75 µM ([1]; Well no.=747): 94.6% | remaining activity at 1.25 µM ([2]; Well no.=747): 93.3%

CC(C)N(CCC(C(N)=O)(c1ccccc1)c1ccccn1)C(C)C (stereo not drawn) [Disopyramide phosphate]
remaining activity at 3.75 µM ([1]; Well no.=436): 98.8% | remaining activity at 1.25 µM ([2]; Well no.=436): 97.6%

CCNC(=O)[C@H]1O[C@@H](n2cnc3c(N)nc(NCCc4ccc(CCC(=O)O)cc4)nc32)[C@H](O)[C@@H]1O [CGS 21680 (Hydrochloride)]
remaining activity at 3.75 µM ([1]; Well no.=7001): 95.1% | remaining activity at 3.75 µM ([1]; Well no.=8417): 94.7% | remaining activity at 1.25 µM ([2]; Well no.=7001): 99.7% | remaining activity at 1.25 µM ([2]; Well no.=8417): 95.9%

C=C1CC[C@H](O)C/C1=C/C=C1\CCC[C@]2(C)[C@@H]([C@H](C)CCCC(C)(C)O)CC[C@@H]12 [Calcifediol]
remaining activity at 3.75 µM ([1]; Well no.=1821): 93.1% | remaining activity at 1.25 µM ([2]; Well no.=1821): 90.8%

CN[C@@H](C)C(=O)N[C@H]1CN(C(=O)CC(C)C)CC[C@H]2CC[C@@H](C(=O)NC(c3ccccc3)c3ccccc3)N2C1=O [AT-406]
remaining activity at 3.75 µM ([1]; Well no.=5071): 106% | remaining activity at 1.25 µM ([2]; Well no.=5071): 102%

O=C(O)Cc1cnc[nH]1 [Imidazole-4-acetic acid hydrochloride]
remaining activity at 3.75 µM ([1]; Well no.=620): 101% | remaining activity at 1.25 µM ([2]; Well no.=620): 97.6%

CCCCC/C=C\C/C=C\C/C=C\CCCCCCC(=O)O [Dihomo-γ-linolenic acid]
remaining activity at 3.75 µM ([1]; Well no.=4317): 99.1% | remaining activity at 1.25 µM ([2]; Well no.=4317): 99%

C/C(Nc1ccccc1)=C1\C(=O)NC(Cc2ccccc2)C1=O (stereo not drawn) [(3E)-3-(1-anilinoethylidene)-5-benzyl-2,4-pyrrolidinedione]
remaining activity at 3.75 µM ([1]; Well no.=5686): 97.8% | remaining activity at 1.25 µM ([2]; Well no.=5686): 96.9%

O=C(Nc1cccc(Cl)c1)c1ccccn1 [VU0364770]
remaining activity at 3.75 µM ([1]; Well no.=7761): 105% | remaining activity at 1.25 µM ([2]; Well no.=7761): 102%

C=CCN1CCc2c(cc(O)c(O)c2Br)[C@@H](c2ccccc2)C1 [R(+)-6-Bromo-APB hydrobromide]
remaining activity at 3.75 µM ([1]; Well no.=277): 97.4% | remaining activity at 1.25 µM ([2]; Well no.=277): 98.1%

COc1ccc(C2=N[C@@H](c3ccc(Cl)cc3)[C@@H](c3ccc(Cl)cc3)N2C(=O)N2CCNC(=O)C2)c(OC(C)C)c1 [Nutlin (3a)]
remaining activity at 3.75 µM ([1]; Well no.=6440): 93.4% | remaining activity at 3.75 µM ([1]; Well no.=7746): 93.2% | remaining activity at 1.25 µM ([2]; Well no.=6440): 92.9% | remaining activity at 1.25 µM ([2]; Well no.=7746): 92%

CCCCCC(=O)/C=C/[C@@H]1[C@@H](C/C=C\CCCC(=O)O)[C@@H](O)C[C@H]1O [15-keto-prostaglandin F2a]
remaining activity at 3.75 µM ([1]; Well no.=4571): 88.5% | remaining activity at 1.25 µM ([2]; Well no.=4571): 90.1%

COC(=O)c1c(C)[nH]c(C)c1C(=O)c1ccccc1Cc1ccccc1 [FPL 64176]
remaining activity at 3.75 µM ([1]; Well no.=713): 94.1% | remaining activity at 1.25 µM ([2]; Well no.=713): 97.6%

CC(C)(CCCCCCCCCCC(C)(C)CC(=O)O)CC(=O)O [MEDICA 16]
remaining activity at 3.75 µM ([1]; Well no.=5805): 91.6% | remaining activity at 1.25 µM ([2]; Well no.=5805): 91.5%

CSc1ccc2c(c1)N(CCC1CCCCN1C)c1ccccc1S2 (stereo not drawn) [Thioridazine hydrochloride]
remaining activity at 3.75 µM ([1]; Well no.=1422): 95.6% | remaining activity at 1.25 µM ([2]; Well no.=1422): 96.4%

C[C@H]1C[C@H]2[C@@H]3CCC4=CC(=O)C=C[C@]4(C)[C@H]3C(=O)C[C@]2(C)[C@@]1(O)C(=O)CO [Meprednisone]
remaining activity at 3.75 µM ([1]; Well no.=6509): 102% | remaining activity at 1.25 µM ([2]; Well no.=6509): 101%

CC/C=C\C/C=C\C/C=C\C/C=C\CCCCC(=O)O [6(Z), 9(Z), 12(Z), 15(Z)-Octadecatetraenoic acid]
remaining activity at 3.75 µM ([1]; Well no.=4398): 97.4% | remaining activity at 1.25 µM ([2]; Well no.=4398): 101%

Cc1nnc(NS(=O)(=O)c2ccc(N)cc2)s1 [Sulfamethizole]
remaining activity at 3.75 µM ([1]; Well no.=7444): 92.4% | remaining activity at 3.75 µM ([1]; Well no.=8179): 106% | remaining activity at 1.25 µM ([2]; Well no.=7444): 94.6% | remaining activity at 1.25 µM ([2]; Well no.=8179): 108%
